# Bridge positions count the residues as written; N and C are the ends. Peptide text beside a SMILES is read from it.
# Legend:
# [1] = test system: Sprague Dawley rats, food intake; assay: Four-day food intake study; type: in vivo, rat; settings: male Sprague Dawley rats on 60% kcal fat diet, 150 μg/kg intraperitoneal once daily for four days, food intake at 2, 4, 6, 8 hours post dose
# Experimental: Food Intake Study. The effect of a CGRP agonist, in accordance with the present invention, on food intake over time both within and across several days of treatment was evaluated. Study was performed by Explora BioLabs, San Diego, Calif. and animals treated in accordance with its IACUC standards.
# On Day 0, 12 animals were randomized into two groups, Test and Control, to obtain similar body weight averages between groups. Animals were dosed via a single intraperitoneal injection, with either ACX017 (SEQ. ID NO:1) (Test group) or vehicle (Control group) each day, for four days. On each day, dosing was performed in the hour prior to the end of the light phase. ACX017 was dosed at 150 μg/kg in a 10% DMSO aqueous solution. Both ACX017 and vehicle were delivered as 1 mL/kg doses.
# Food consumption was measured pre-dose and at 2, 4, 6 and 8 hours post dose. Food intake was measured by weighing food hoppers on Days 1, 2, 3 and four in the hour before end of the light phase and at 2, 4, 6 and 8 hours post dosing.
# Average food intake for each of the Test and Control groups at each time point post dosing was determined. Cumulative food intake for each group over the entire test period (8 hours) is provided in graph form in FIGS. 1-4 for each of Days 1-4, respectively.
# [2] = target: T1, CALCRL:RAMP3 (adrenomedullin 2 (AM2) receptor) (Homo sapiens, UniProt O60896+Q16602); assay: CALCRL:RAMP3 CRE-bla Freestyle 293F agonist screen (adrenomedullin 2 receptor); type: cell-based; settings: CALCRL:RAMP3-CRE-bla Freestyle 293F cells, 5 hours incubation, FIG. 2
# T1 construct: host or cells: Freestyle 293F (CRE-bla reporter line)
# Experimental: Cell-based GPCR Profiling Assays. A representative CGRP agonist peptide according to the present invention, ACX017 (SEQ ID NO:1), was profiled against G-Protein Coupled Receptors (GPCRs) in cell-based assays to determine its agonist activity and dose response. Assays were performed using the SelectScreen® Cell-based GPCR Profiling Services by Life Technologies, Carlsbad, Calif.
# CALCRL:RAMP3—CRE-bla Freestyle 293F—Agonist Screen (Adrenomedullin 2 Receptor)
# CALCRL:RAMP3-CRE-bla Freestyle 293F cells were thawed and resuspended in Assay Media (DMEM, 10% dialyzed FBS, 25 mM HEPES pH 7.3, 0.1 mM NEAA, 100 U/mL/100 μg/mL Pen/Strep) to a concentration of 312,500 cells/mL. 32 μL of cell suspension (10,000 cells) was added to each well of a 384-well Poly-D-Lysine assay plate. Cells in Assay Media were incubated for 16-24 hours in the plate at 37° C./5% CO2 in a humidified incubator. 4 μL of a 10× serial dilution of Adrenomedullin or ACX017 were added to appropriate wells of the plate. […] The plate was read on a fluorescence plate reader. […]
# Cell-free Control. […] It was used to determine the background fluorescence for both coumarin and fluorescein wavelengths. […]
# Known Agonist. A known agonist titration was run on every plate for each cell-line to ensure the cell line was activated within an expected EC50/IC50 range as previously determined.
# T1 sequence (Q16602 23-461): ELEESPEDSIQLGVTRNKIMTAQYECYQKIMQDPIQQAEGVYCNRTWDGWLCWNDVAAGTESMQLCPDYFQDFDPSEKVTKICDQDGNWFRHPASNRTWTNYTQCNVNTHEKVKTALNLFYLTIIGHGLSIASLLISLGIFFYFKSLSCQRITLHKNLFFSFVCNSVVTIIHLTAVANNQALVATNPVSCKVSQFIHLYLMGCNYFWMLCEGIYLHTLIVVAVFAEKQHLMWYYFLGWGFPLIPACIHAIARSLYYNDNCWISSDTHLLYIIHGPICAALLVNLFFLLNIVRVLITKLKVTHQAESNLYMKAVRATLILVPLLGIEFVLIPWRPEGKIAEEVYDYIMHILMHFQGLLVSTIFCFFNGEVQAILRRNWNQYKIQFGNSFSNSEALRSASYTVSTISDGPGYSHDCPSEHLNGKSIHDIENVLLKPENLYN
# T1 sequence (O60896 24-148): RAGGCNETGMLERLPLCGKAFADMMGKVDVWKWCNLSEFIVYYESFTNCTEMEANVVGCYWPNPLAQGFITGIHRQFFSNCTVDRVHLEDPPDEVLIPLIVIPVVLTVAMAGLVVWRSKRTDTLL
smiles,measurement,setting,value
CC(C)C[C@H](NC(=O)[C@H](CCCNC(=N)N)NC(=O)CNC(=O)[C@H](CC(C)C)NC(=O)[C@@H](NC(=O)[C@@H]1CSSC[C@H](NC(=O)[C@H](C)N)C(=O)N[C@@H](CC(=O)O)C(=O)N[C@@H]([C@@H](C)O)C(=O)N[C@@H](C)C(=O)N[C@@H]([C@@H](C)O)C(=O)N1)C(C)C)C(=O)N[C@@H](CO)C(=O)N[C@@H](CCC(N)=O)C(=O)N[C@@H](CCC(=O)O)C(=O)N[C@@H](CC(C)C)C(=O)N[C@@H](Cc1c[nH]cn1)C(=O)N[C@@H](CCCNC(=N)N)C(=O)N[C@@H](CC(C)C)C(=O)N[C@@H](CCC(N)=O)C(=O)N[C@H](C(=O)N[C@@H](Cc1ccc(O)cc1)C(=O)N1CCC[C@H]1C(=O)N[C@@H](CCCNC(=N)N)C(=O)N[C@H](C(=O)N[C@@H](CC(N)=O)C(=O)N[C@H](C(=O)NCC(=O)N[C@@H](CO)C(=O)N[C@@H](CCCCN)C(=O)N[C@@H](C)C(=O)N[C@@H](Cc1ccccc1)C(N)=O)C(C)C)[C@@H](C)O)[C@@H](C)O [ACX017] (H-ACDTATCVLGRLSQELHRLQTYPRTNVGSKAF-NH2; disulfide 2-7),appetite suppression (reduced food intake compared to Control group),[1],suppressed appetite in the Test group for at least about four hours after dosing
same,activation of the adrenomedullin 2 (AM2) receptor,[2],did not activate the adrenomedullin 2 (AM2) receptor
